Laboratory results taken from patent publication US20130102009A1, “SIRTUIN ACTIVATORS AND ACTIVATION ASSAYS” (priority 2010, published 2013).

Tests used:
[1] = target: Ac-Arg-His-Lys-Lys^Ac-Phe-NH2; assay: ITC binding of STACs to Ac-Arg-His-Lys-Lys^Ac-X, X=PheNH2; details: 10% DMSO for SRT1720, SRT2183 and 10, no cosolvent for SRT1460
Method: ITC experiments were performed using either a VP-ITC system or iTC200 system (MicroCal) at 26° C. in a buffer composed of 137 mM NaCl, 2.7 mM KCl, 1 mM MgCl2, 2 mM TCEP, 5% (v/v) glycerol and 50 mM HEPES-NaOH, pH 7.3. SIRT1(183-664) was purified and dialyzed against the buffer, centrifuged, and degassed before the experiment. The peptide and compounds were dissolved in the final dialysis buffer and their pH values were adjusted to match that of the protein solution. […] To characterize this interaction using the iTC200 system, 1 mM TAMRA-peptide was injected in 20 aliquots of 2 μL, (except the first injection, which was 0.5 μL) into a 0.202 mL sample cell containing 100 μM STAC. For STACs with poor solubility, the concentrations were adjusted accordingly. […] In all cases, data was corrected for the heat of dilution and fitted using a nonlinear least-squares routine using a single-site binding model with Origin for ITC v7.0383 (Microcal) with the stoichiometry (n), the enthalpy of the reaction (ΔH) and the association constant (Ka) calculated. Table 2 summarizes Kd values for the binding of STACs to […]. Note that except for SRT1460, the solubility of the compounds required that these ITC experiments be done in solutions containing 10% DMSO.

[2] = target: T1, SIRT1 (Homo sapiens, UniProt Q96EB6); assay: Continuous PNC1-GDH-coupled assay of SIRT1-catalyzed deacetylation of Ac-Arg-His-Lys-Lys^Ac-X with STACs; assay type: biochemical; details: for Relative Velocity, X=Ala-NH2: Ac-Arg-His-Lys-Lys^Ac-Ala-NH2; for Relative Velocity, X=NH2: Ac-Arg-His-Lys-Lys^Ac-NH2
T1 sequence (Q96EB6 1-747): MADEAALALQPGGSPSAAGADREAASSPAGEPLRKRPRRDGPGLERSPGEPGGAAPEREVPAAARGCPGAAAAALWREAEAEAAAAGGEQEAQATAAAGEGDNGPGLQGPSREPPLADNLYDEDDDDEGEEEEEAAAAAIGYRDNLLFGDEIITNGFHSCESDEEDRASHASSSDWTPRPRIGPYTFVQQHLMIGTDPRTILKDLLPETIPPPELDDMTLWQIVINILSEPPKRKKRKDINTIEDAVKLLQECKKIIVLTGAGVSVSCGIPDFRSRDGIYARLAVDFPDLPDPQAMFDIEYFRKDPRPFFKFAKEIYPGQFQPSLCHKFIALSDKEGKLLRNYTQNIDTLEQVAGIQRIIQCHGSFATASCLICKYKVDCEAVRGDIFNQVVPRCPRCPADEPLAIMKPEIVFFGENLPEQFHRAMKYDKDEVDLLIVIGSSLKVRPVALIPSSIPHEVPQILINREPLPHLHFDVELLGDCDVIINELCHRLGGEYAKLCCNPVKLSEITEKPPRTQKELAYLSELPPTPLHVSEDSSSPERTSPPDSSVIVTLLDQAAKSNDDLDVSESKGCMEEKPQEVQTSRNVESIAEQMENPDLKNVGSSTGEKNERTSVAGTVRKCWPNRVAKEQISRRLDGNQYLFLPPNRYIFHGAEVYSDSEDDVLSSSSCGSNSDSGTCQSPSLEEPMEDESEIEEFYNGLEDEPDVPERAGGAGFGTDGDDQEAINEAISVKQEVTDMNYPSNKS
Method: Bovine glutamate dehydrogenase (GDH), α-ketoglutarate, NADH and NAD^+ were from Sigma Chemical Company. […] The nicotinamidase PNC1 was prepared as described by Denu and colleagues (Smith et al. (2009) Anal Biochem 394, 101-109). To determine the interaction of STACs with SIRT1 two kinetic methods were employed. […] (2007) Nature 450, 712-716). The other, used with peptides of general structure […], used a continuous, enzyme-coupled method reported previously (Smith et al. (2009) Anal Biochem 394, 101-109), in which the SRT1 product nicotinamide is first converted into nicotinic acid and ammonia by the action of PNC1, and the ammonia then used by GDH to convert α-ketoglutarate into glutamate. This reaction occurs with oxidation of NADH to NAD^+ which is accompanied by a change in absorbance at 340 nm (Δε340=-6,200 M^-1 cm^-1). The kinetic experiments used to characterize activators were run on a Perkin Elmer Lambda 25 spectrophotometer equipped with a water-jacketed, eight-cell changer maintained at 25° C. In a typical kinetic experiment, all components of the reaction solution except SIRT1 were added to a 1 mL cuvette and allowed to reach thermal equilibrium. Final concentrations of the coupling system components were: 1 μM PNC1, 0.23 mM NADH, 3.4 mM α-ketoglutarate, and 20 U/mL bovine GDH. This solution also contained peptide substrate, NAD^.0., and activator, at concentrations indicated in the text. The final DMSO concentration was kept constant at 1%, and the buffer used in these experiments was 50 mM HEPES, 150 mM NaCl, pH 7.5. While the system was reaching thermal equilibrium, the absorbance was monitored to provide an accurate estimate of the background rate, which was subtracted from the reaction rate after the addition of SIRT1. Activator titrations were plotted as relative velocity (i.e., the ratio of vx, velocity in the presence of activator X, to vo, velocity in the absence of activator) vs. [X]o, initial concentration of activator, and fit by nonlinear least-squares to the mechanism-independent expression for enzyme activation of […] the maximum relative velocity (i.e., vx/vo at infinite [X]o) and EC50 is the activator concentration at which vx/vo=(RVmax-1)/2. EC50 is a function of the kinetic mechanisms of both catalysis and activation, and the concentrations of substrates.

[3] = [SRT]o = 5 μM, [peptide]o ≦ Km, [NAD+] = 70 μM
[4] = full titration, 3-5 independent experiments

Structure (SMILES) | Kd [1] [µM] | Kd for binding to Ac-Arg-His-Lys-Lys^Ac-X, X=PheNH2 [1] | Relative Velocity, X=AMC ([2]; [SRT]o = 5 μM, [peptide]o ≦ Km, [NAD+] = 70 μM, Ac-Arg-His-Lys-Lys^Ac-AMC, listed as 22) | Relative Velocity, X=Ala-NH2 [2, 3] | Relative Velocity, X=NH2 [2, 3] | Relative Velocity, X=NH2 ([2]; [SRT]o = 5 μM, [peptide]o ≦ Km, [NAD+] = 70 μM, listed as 22) | Relative Velocity, X=Trp-NH2 ([2]; [SRT]o = 5 μM, [peptide]o ≦ Km, [NAD+] = 70 μM, Ac-Arg-His-Lys-Lys^Ac-Trp-NH2, listed as 22) | EC1.5 for activation of deacetylation of Ac-Arg-His-Lys-Lys^Ac-X, X=AMC [2, 4] [µM] | EC1.5 for activation of deacetylation of Ac-Arg-His-Lys-Lys^Ac-X, X=TrpNH2 [2, 4] [µM] | EC1.5 for activation of deacetylation of Ac-Arg-His-Lys-Lys^Ac-X, X=PheNH2 [2, 4] [µM] | RVmax for activation of deacetylation of Ac-Arg-His-Lys-Lys^Ac-X, X=TrpNH2 [2, 4] | EC50 ([2]; full titration, 3-5 independent experiments, read-out: EC50 for activation of deacetylation of Ac-Arg-His-Lys-Lys^Ac-X, X=TrpNH2) [µM]
CCCCc1nc(NC2CCNCC2)cc(C(=O)Nc2ccccc2-c2nc3cc(COC4CCNCC4)cnc3s2)n1 [Compound 10, 2-butyl-6-(piperidin-4-ylamino)-N-(2-(6-((piperidin-4-yloxy)methyl)thiazolo[5,4-b]pyridin-2-yl)phenyl)pyrimidine-4-carboxamide] | 190 | does bind | activates | 0.3 | 0.6 | inhibits | activates | 3.1 | 1.9 | – | – | –
COc1cc(C(=O)Nc2ccccc2-c2cn3c(CN4CCNCC4)csc3n2)cc(OC)c1OC [SRT1460] | > 500 | no binding | – | 1.1 | 0.8 | – | – | – | 5.0 | 26.0 | 4.1±0.1 | 27 ± 8
